Here are results for three molecules from patent publication US5919631A, “Method of determining the degree of aggregation of the β-A4 peptide” (Hoechst Marion Roussel, Inc., priority 1996, dated 1999).

In the experiment the target is β-amyloid (βA4) peptide (Homo sapiens, UniProt P05067). Particulars: 37° C.; for percent decrease in aggregation of β-amyloid: 25 μM β-amyloid; for percent decrease in aggregation of β-amyloid / percentage of increase of aggregation: 48 hours. On the procedure: β-amyloid (also known as (βA-4) peptide was dissolved in 100% dimethylsulfoxide (DMSO) at 10 mg/ml (or 2500 μM) concentration. The resultant solution was diluted to 1 mg/ml (or 250 μM) stock in Phosphate Buffered Saline (PBS), pH 7.4, just prior to setting up the assay and dispensed in individual sample wells of a Corning 96-well plate at 16 μl per well (i.e. a final concentration of 25 μM). All treatments were done in triplicate.
Chain of β-amyloid (βA4) peptide (P05067 672-713 limits assumed): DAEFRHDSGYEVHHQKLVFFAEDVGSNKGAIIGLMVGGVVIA
In this example, the candidate compound was added to the test wells at three different concentrations (250 μM, 500 μM and 1 mM). Total volume in each well was brought up to 160 μl with PBS. For untreated control wells, no compound was added to the β-amyloid peptide, and the total volume was made to 160 μl with PBS. The plates were sealed with parafilm and incubated at 37° C. for 48 hours.
At the end of the incubation period, the plates were taken out and 25 μl of Bio-Rad protein assay dye reagent (Bradford dye) was added to all the wells with samples. A standard curve was also set up at this time for estimation of fresh (also considered as unaggregared) peptide absorbance. The dye was mixed by pipeting and the plates quickly spun at 2500 rpm to remove bubbles.
The Absorbance was read at 595 nm in a Dynatech MR5000 plate reader 15 minutes after adding the dye.
The procedure of Example 1 was repeated except that hydrogen peroxide (10 μl of 30% stock) was added to the wells in a 96-well plate with 16 μl of the 1 mg/ml β-amyloid stock. The final volume was then brought up to 160 μl by adding 134 μl of PBS to these wells. The plate was sealed and incubated at 37° C. for 48 hours.
At the end of the incubation period, the plates were taken out and 25 μl of Bio-Rad protein assay dye reagent (Bradford dye) was added to all the wells with samples as in Example 1. A standard curve was again used for estimation of fresh (also considered as unaggregated) peptide absorbance. The dye was mixed by pipeting and the plates quickly spun at 2500 rpm to remove bubbles.
The absorbance was read at 595 nm in the Dynatech MR5000 plate reader 15 minutes after adding the dye. The amount of aggregation was estimated by subtracting background and taking the difference between the fresh and hydrogen peroxide treated β-amyloid readings. The difference was expressed as percent over fresh or unaggregated peptide.

Read-outs that look alike come from different tables or passages of the source.

`CCCn1cnc2c1c(=O)n(CCCCC(C)=O)c(=O)n2C` [propentofylline, 1-(5'-oxohexyl)-3-methyl-7-propyl-2,6-(1H,3H)-purinedione]: the “percent decrease in aggregation of β-amyloid” value is, setting by setting: (500 μM compound) 29.68%; (1 mM compound) 37.4%.

On to `OO` [hydrogen peroxide], for which, where the note is “10 μl of 30% stock in 160 μl, after 48 hrs”, the “percentage of aggregation (difference between fresh and treated β-amyloid, percent over fresh peptide)” value was found to be 97.7%.

On to pentosan polysulfate, for which the “percentage of increase of aggregation” value runs as follows: (0.5 μM compound) 40.8%; (5 μM compound) 57.1%; (50 μM compound) 62.9%.
